# From ChEMBL document CHEMBL6109051, “Structure guided modification of 2-chloro-5-(ethyl-phenyl-sulfamoyl)-N-[2-(2-oxo-pyrrolidin-1-yl)-phenyl]-benzamide to afford selective inhibitors of Cryptosporidium parvum N-myristoyltransferase” (Bioorg Med Chem Lett, 2025)
# Columns and labels:
# Cryptosporidium parvum = experiment: Antiparasitic activity against Cryptosporidium parvum assessed as inhibition of parasitic growth; assay type: functional, organism-based
# [1] = Inhibition of Cryptosporidium parvum NMT
# [2] = Selectivity index, ratio of IC50 for human NMT1 to IC50 for Cryptosporidium parvum NMT
# [3] = target: T1, Glycylpeptide N-tetradecanoyltransferase 1 (Homo sapiens, UniProt P30419); experiment: Inhibition of human NMT1
# T1 sequence (P30419 whole entry): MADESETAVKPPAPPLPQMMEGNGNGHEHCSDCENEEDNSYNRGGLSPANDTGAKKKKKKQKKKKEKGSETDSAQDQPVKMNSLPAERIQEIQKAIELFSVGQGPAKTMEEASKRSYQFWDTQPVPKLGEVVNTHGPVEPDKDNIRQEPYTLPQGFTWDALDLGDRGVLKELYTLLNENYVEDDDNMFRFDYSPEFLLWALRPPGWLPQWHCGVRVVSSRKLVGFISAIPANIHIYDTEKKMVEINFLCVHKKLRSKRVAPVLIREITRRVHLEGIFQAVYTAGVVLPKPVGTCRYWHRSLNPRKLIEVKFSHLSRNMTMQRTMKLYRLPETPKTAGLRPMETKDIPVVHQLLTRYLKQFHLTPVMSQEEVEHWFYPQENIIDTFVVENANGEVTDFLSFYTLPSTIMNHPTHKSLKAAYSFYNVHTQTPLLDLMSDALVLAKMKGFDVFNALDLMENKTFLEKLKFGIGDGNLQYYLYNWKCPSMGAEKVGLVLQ
SMILES,IC50 [1] [µM],Ratio IC50 [2],IC50 [3] [µM],EC50 (Cryptosporidium parvum) [µM]
CCN(c1ccccc1)S(=O)(=O)c1ccc(Cl)c(C(=O)Nc2ccccc2N2CCCC2=O)c1,3.5,1.4,,3.5
CCN(c1ccccc1)S(=O)(=O)c1ccc(Cl)c(C(=O)Nc2ccccc2N2CC(C)(C)CC2=O)c1,> 125,,,> 20
CCN(c1ccccc1)S(=O)(=O)c1ccc(Cl)c(C(=O)Nc2ccccc2N2C(=O)CC(C)(C)C2=O)c1,> 125,,,> 20
CCN(c1ccccc1)S(=O)(=O)c1ccc(Cl)c(C(=O)Nc2ccccc2N2CCN(C(C)C)C2=O)c1,> 125,,,> 20

# More lines, main results first:
IC50 [1] [µM],Ratio IC50 [2],IC50 [3] [µM],SMILES,EC50 (Cryptosporidium parvum) [µM]
2.5,4.6,11.4,CCN(c1ccccc1)S(=O)(=O)c1ccc(Cl)c(C(=O)Nc2ccccc2N2CCN(C)C2=O)c1,6.9
> 125,,,CCN(c1ccccc1)S(=O)(=O)c1ccc(Cl)c(C(=O)Nc2ccccc2N2CC(CC)(CC)CC2=O)c1,> 20
2.8,> 44,> 125,CCN1CCN(c2ccccc2NC(=O)c2cc(S(=O)(=O)N(CC)c3ccccc3)ccc2Cl)C1=O,16.4
52.8,> 2,> 125,CCN(c1ccccc1)S(=O)(=O)c1ccc(Cl)c(C(=O)Nc2ccccc2N2CCN(CC3CC3)C2=O)c1,> 20
13.8,> 9,> 125,CCN(c1ccccc1)S(=O)(=O)c1ccc(Cl)c(C(=O)Nc2ccccc2N2CCC(C)(C)C2=O)c1,> 20
